Experimental findings from patent publication US11090275B2, “Compositions comprising cannabidiol and second therapeutic agents for the treatment of cancer” (JAY PHARMA, INC., priority 2015, dated 2021) are described below.

The structures appear in SMILES notation. Like-named read-outs stand apart in the source and are kept apart here.

One experiment relates to A-172 cells. Description: XTT cell viability, A-172 cells. It counts as cell-based, human. Conditions: cannabidiol at 5 μM or more, 48h. As to the method:
(§1) human HL-60, myeloblastic leukemia and CCRF-CEM, acute lymphoblastic leukemia cell line were cultured in RPMI-1640 supplemented with 10% (v/v) heat-inactivated fetal calf serum, 2 mM L-glutamine, 100U/ml penicillin and 100 μg/ml streptomycin. MCF-7, breast cancer and A-172, glioblastoma cell lines were cultured in DMEM supplemented with 10% (v/v) heat-inactivated fetal calf serum, 2 mM L-glutamine, 100U/ml penicillin and 100 μg/ml streptomycin. Cultures were maintained at 37° C. in a humidified atmosphere with 5% CO2 and maintained in exponential phase by transfer to fresh medium every 2-3 days. Experiments were conducted in serum free medium and 5% or 10% FCS medium. The trypanblue dye exclusion method was used for cell counting performed using a hemocytometer under light microscope.
(Tetrazolium dyes change colour on reduction, which living cells bring about.)

The next experiment deals with Mcl-1. The experiment is described as follows: Western blot of Mcl-1 in CCRF-CEM cells. It counts as cell-based, human. Conditions: 20 μM cannabidiol, by 3h of treatment. As to the method:
Cells washed twice with ice cold PBS and lysed in RIPA buffer (50 mM Tris-HCl, 0.1% NP-40, 1 mM DTT, 0.25M sucrose, 2 mM MgCl2, pH 7.4) for 30 min on ice. After centrifugation, the post-nuclear supernatant containing the cell soluble fraction were loaded on to a 12% SDS-PAGE gel. After electrophoresis, the gels were blotted onto a PVDF membrane (Bio-Rad, Hercules, Calif.), blocked with 5% (w/v) milk for overnight at 4° C. temperature, washed briefly in Tris-Buffered Saline Tween-20 (TBST), and then probed overnight at 4° C. with the anti-mouse human anti-MC1-1 and calreticulin (CRN) primary antibodies. Primary antibody binding was detected with anti-mouse IgG conjugated to horseradish peroxidase (Jackson Immunoresearch, Avondale, Pa.), and made visible by enhanced chemiluminescence (ECL) (Biological Industries, Israel), according to manufacturer's instructions. Antibodies against MCl-1 and calreticulin (CRN) were purchased from Santa Cruz, Calif., USA.
(A western blot detects proteins with antibodies after separation by electrophoresis.)

Experiment [1] concerns CCRF-CEM cells. Description: Morphological quantification of apoptosis (acridine orange/ethidium bromide), CCRF-CEM. It counts as cell-based, human. Conditions: serum free and 5% FCS medium, 24h. The protocol: (§2) for determination of apoptosis, cells were harvested (650 g, 7 min) and stained with acridine orange/ethidium bromide at a final concentration of 0.05 mg/ml. This method allows distinguishing between live, necrotic and apoptotic cells (FIG. 11). […] At least 100 cells were counted under a fluorescence microscope and the percentage of affected cells was calculated.

Experiment [2] deals with HL-60 cells. Description: Morphological quantification of apoptosis (acridine orange/ethidium bromide), HL-60. It counts as cell-based, human. Conditions: 5% FCS medium, 24 and 48h. As to the method:
as §2

A further experiment relates to MCF-7 cells. The experiment is described as follows: XTT cell viability, MCF-7 cells. Type of experiment: cell-based. Conditions: cannabidiol at 5 μM or more, 24h. As to the method:
as §1

A further experiment relates to HL-60 tumor. The experiment is described as follows: Mouse xenograft model transplanted with HL-60 cells. Type of experiment: in vivo. Particulars: 5 mg/kg CBD, 10 mg/kg CL, alone and combination, peritumoral; days 7 through 14. As to the method:
NOD/SCID mice were bred and housed at animal facility of Ben-Gurion University of the Negev, Israel. All animals were used between 7-8 weeks old of age. For induction of tumor, mice were irradiated with 2.7 Gy X ray radiation for 2 min. The following 5 hours, mice were injected with 1 million viable HL-60 cells on right flank of mice. Mice were monitored for tumorigenesis. Tumors were measured during 14 days and their volumes (mm^3) were calculated as (d^2XD)/2 (where d is the shortest and D is the longest diameter of the tumor in mm). […] The injection was repeated once a day, 5 days per week, and tumor volumes were checked twice a week until the vehicle died and the remained animals were sacrificed.

The test system of experiment [3] is CCRF-CEM cells. Description: XTT cell viability, CCRF-CEM cells. Type of experiment: cell-based, human. Conditions: cannabidiol at 5 μM or more, 24h. The protocol: as §1
The subject of experiment [4] is HL-60 cells. Description: XTT cell viability, HL-60 cells. It counts as cell-based, human. Particulars: for IC50: Homo sapiens. The protocol:
as §1

As to `C=C(C)[C@@H]1CCC(C)=C[C@H]1c1c(O)cc(CCCCC)cc1O` [CBD, Cannabidiol], the “number of viable cells” value with A-172 cells is recorded as “significant reduction in the number of viable cells”; in the experiment with MCF-7 cells it was “significant reduction in the number of viable cells”; with CCRF-CEM cells [3], “significant reduction in the number of viable cells”; with HL-60 cells [4] (cannabidiol at 5 μM or more, 24h and 48 h) it was “significant reduction in the number of viable cells”. Moreover, in the experiment on Mcl-1, the Mcl-1 expression entry is given as “down regulated”. The induction of apoptosis entry was “dose and time dependent induction of apoptosis” with CCRF-CEM cells [1]; “dose and time dependent induction of apoptosis” in the experiment with HL-60 cells [2]. In addition, in the experiment on HL-60 tumor, the HL-60 tumor growth entry is “significant suppression”. Further, the “effect on cell viability at very low concentration” value in the experiment with HL-60 cells [4] (0.2 μM, serum free condition, 24h) is on record as “profound effect on reduction of cell viability”. The “sensitivity of cells to CBD” value with HL-60 cells [4] (10% FCS medium, 24h) is “less sensitive”. Further, the half-inhibitory concentration (IC50) with HL-60 cells [4] (HL-60, 24 h, read-out: IC50, cell viability) was 0.26 µM; with HL-60 cells [4] (HL-60, 48 h, read-out: IC50 value, cell viability), 16 µM.

Regarding `CCN(CC)CCOc1ccc(C(=C(Cl)c2ccccc2)c2ccccc2)cc1` [clomiphene], the HL-60 tumor growth result with HL-60 tumor is listed as “significant suppression”.

In general, IC50 refers to the concentration that inhibits the measured activity by half.
